From PMC5218480 (PLoS ONE, 2017)

System: MV-4-11 cells
Experiment: Gene expression microarray analysis (Affymetrix PrimeView) and GSEA
Format: cell-based, human
Design: RFU PODN (11730768_x_at) / Fold change /veh PODN (11730768_x_at) / RFU LINC00158 (11744669_a_at) / Fold change /veh LINC00158 (11744669_a_at) / RFU DUSP10 (11751237_a_at) / Fold change /veh DUSP10 (11751237_a_at) / RFU ID3 (11757404_x_at) / Fold change /veh ID3 (11757404_x_at) / RFU PLEKHG5 (11737974_s_at) / Fold change /veh PLEKHG5 (11737974_s_at) / RFU LRRC4B (11730491_at) / Fold change /veh LRRC4B (11730491_at) / RFU GIMAP4 (11747438_a_at) / Fold change /veh GIMAP4 (11747438_a_at) / RFU KRT8 (11758183_x_at) / Fold change /veh KRT8 (11758183_x_at) / RFU CNN1 (11734310_a_at) / Fold change /veh CNN1 (11734310_a_at) / RFU VPS37D (11726825_at) / Fold change /veh VPS37D (11726825_at) / RFU C10orf10 (11716522_x_at) / Fold change /veh C10orf10 (11716522_x_at) / RFU KIR2DL2 /// KIR2DL4 /// KIR2DL5A /// KIR2DL5B /// KIR2DS1 /// KIR2DS2 /// KIR2DS3 /// KIR2DS4 /// KIR3DL3 /// KIR3DL3 /// KIR3DS1 (11738374_at) / Fold change /veh KIR2DL2 /// KIR2DL4 /// KIR2DL5A /// KIR2DL5B /// KIR2DS1 /// KIR2DS2 /// KIR2DS3 /// KIR2DS4 /// KIR3DL3 /// KIR3DL3 /// KIR3DS1 (11738374_at) / RFU C1QL1 (11718748_at) / Fold change /veh C1QL1 (11718748_at) / RFU TMPRSS4 (11747572_a_at) / Fold change /veh TMPRSS4 (11747572_a_at) / RFU HAMP (11756126_x_at) / Fold change /veh HAMP (11756126_x_at) / RFU RNFT2 (11725882_a_at) / Fold change /veh RNFT2 (11725882_a_at) / RFU NR4A2 (11747474_a_at) / Fold change /veh NR4A2 (11747474_a_at) / RFU ABCC12 (11746883_a_at) / Fold change /veh ABCC12 (11746883_a_at) / RFU TMEM136 (11760407_x_at) / Fold change /veh TMEM136 (11760407_x_at) / RFU CLDN22 /// WWC2 (11732394_at) / Fold change /veh CLDN22 /// WWC2 (11732394_at) / RFU HLA-DPB1 (11760878_x_at) / Fold change /veh HLA-DPB1 (11760878_x_at) / RFU SPINT1 (11716480_a_at) / Fold change /veh SPINT1 (11716480_a_at) / RFU GAP43 (11754022_s_at) / Fold change /veh GAP43 (11754022_s_at) / RFU A4GNT (11735810_at) / Fold change /veh A4GNT (11735810_at) / RFU PRB3 (11715151_x_at) / Fold change /veh PRB3 (11715151_x_at) / RFU TUBB4B (11761932_at) / Fold change /veh TUBB4B (11761932_at) / RFU CAPN14 (11732068_a_at) / Fold change /veh CAPN14 (11732068_a_at) / RFU TMCC2 (11721928_a_at) / Fold change /veh TMCC2 (11721928_a_at) / RFU IRGQ (11745062_a_at) / Fold change /veh IRGQ (11745062_a_at) / RFU FAM174B (11720279_a_at) / Fold change /veh FAM174B (11720279_a_at) / RFU TMPRSS4 (11748680_a_at) / Fold change /veh TMPRSS4 (11748680_a_at) / RFU FAM212B (11763350_a_at) / Fold change /veh FAM212B (11763350_a_at) / RFU PLEKHG5 (11743358_a_at) / Fold change /veh PLEKHG5 (11743358_a_at) / RFU ZSCAN30 (11745921_a_at) / Fold change /veh ZSCAN30 (11745921_a_at) / RFU CMKLR1 (11741424_a_at) / Fold change /veh CMKLR1 (11741424_a_at) / RFU LOC101060620 /// MAPK8IP1 (11723275_at) / Fold change /veh LOC101060620 /// MAPK8IP1 (11723275_at) / RFU SPTSSB (11747773_x_at) / Fold change /veh SPTSSB (11747773_x_at) / RFU PRSS12 (11739890_at) / Fold change /veh PRSS12 (11739890_at) / RFU BIN1 (11741810_x_at) / Fold change /veh BIN1 (11741810_x_at) / RFU WNT11 (11732464_a_at) / Fold change /veh WNT11 (11732464_a_at) / RFU C10orf10 (11716521_a_at) / Fold change /veh C10orf10 (11716521_a_at) / RFU C5orf56 (11738089_at) / Fold change /veh C5orf56 (11738089_at) / RFU CYB561 (11721691_x_at) / Fold change /veh CYB561 (11721691_x_at) / RFU ANKRD19P (11752326_a_at) / Fold change /veh ANKRD19P (11752326_a_at) / RFU OR2T12 /// OR2T33 /// OR2T8 (11738714_s_at) / Fold change /veh OR2T12 /// OR2T33 /// OR2T8 (11738714_s_at) / RFU VCAN (11748164_a_at) / Fold change /veh VCAN (11748164_a_at) / RFU JSRP1 (11732532_at) / Fold change /veh JSRP1 (11732532_at) / RFU KRTAP10-11 (11738290_x_at) / Fold change /veh KRTAP10-11 (11738290_x_at) / RFU MYO3A (11730013_a_at) / Fold change /veh MYO3A (11730013_a_at) / RFU EBF3 (11725865_a_at) / Fold change /veh EBF3 (11725865_a_at) / RFU CAMK2N1 (11719241_x_at) / Fold change /veh CAMK2N1 (11719241_x_at) / RFU C5orf56 (11738088_a_at) / Fold change /veh C5orf56 (11738088_a_at) / RFU OLFML3 (11715873_a_at) / Fold change /veh OLFML3 (11715873_a_at) / RFU LOC100653217 /// NTM (11731650_a_at) / Fold change /veh LOC100653217 /// NTM (11731650_a_at) / RFU MAPK11 (11762145_a_at) / Fold change /veh MAPK11 (11762145_a_at) / RFU FIZ1 (11724087_x_at) / Fold change /veh FIZ1 (11724087_x_at) / RFU OASL (11726364_x_at) / Fold change /veh OASL (11726364_x_at) / RFU SOX15 (11748057_x_at) / Fold change /veh SOX15 (11748057_x_at) / RFU CD79A (11719716_a_at) / Fold change /veh CD79A (11719716_a_at) / RFU HIST1H1D (11736915_at) / Fold change /veh HIST1H1D (11736915_at) / RFU CASKIN2 (11723855_a_at) / Fold change /veh CASKIN2 (11723855_a_at) / RFU LOC730098 (11760151_x_at) / Fold change /veh LOC730098 (11760151_x_at) / RFU OR4N2 (11742367_at) / Fold change /veh OR4N2 (11742367_at) / RFU PRRT2 (11749266_a_at) / Fold change /veh PRRT2 (11749266_a_at) / RFU SNX32 (11753110_a_at) / Fold change /veh SNX32 (11753110_a_at) / RFU CDHR5 (11726645_a_at) / Fold change /veh CDHR5 (11726645_a_at) / RFU RCAN1 (11760418_a_at) / Fold change /veh RCAN1 (11760418_a_at) / RFU FAM167A (11723789_a_at) / Fold change /veh FAM167A (11723789_a_at) / RFU FAM26E (11764081_at) / Fold change /veh FAM26E (11764081_at) / RFU ISYNA1 (11749810_s_at) / Fold change /veh ISYNA1 (11749810_s_at) / RFU ACY1 (11761880_at) / Fold change /veh ACY1 (11761880_at) / RFU 11764098_at / Fold change /veh 11764098_at / RFU SAMD14 (11745864_x_at) / Fold change /veh SAMD14 (11745864_x_at) / RFU NPB (11741838_a_at) / Fold change /veh NPB (11741838_a_at) / RFU TMPRSS6 (11731388_a_at) / Fold change /veh TMPRSS6 (11731388_a_at) / RFU KRTAP10-2 (11738614_at) / Fold change /veh KRTAP10-2 (11738614_at) / RFU ARHGAP8 /// PRR5-ARHGAP8 (11727945_x_at) / Fold change /veh ARHGAP8 /// PRR5-ARHGAP8 (11727945_x_at) / RFU KRTAP5-7 /// NADSYN1 (11734609_at) / Fold change /veh KRTAP5-7 /// NADSYN1 (11734609_at) / RFU RASL12 (11751679_a_at) / Fold change /veh RASL12 (11751679_a_at) / RFU CDKN2B (11736163_a_at) / Fold change /veh CDKN2B (11736163_a_at) / RFU PRF1 (11729649_at) / Fold change /veh PRF1 (11729649_at) / RFU, ZNF638 /// ZNF638-IT1 / Fold change vs veh, ZNF638 /// ZNF638-IT1 / RFU, PANK3 / Fold change vs veh, PANK3 / RFU, SH3YL1 / Fold change vs veh, SH3YL1 / RFU, ZEB2 / Fold change vs veh, ZEB2 / RFU, NRIP1 / Fold change vs veh, NRIP1 / RFU, PTTG1IP / Fold change vs veh, PTTG1IP / RFU, CAPN2 / Fold change vs veh, CAPN2 / RFU, MED14 / Fold change vs veh, MED14 / RFU, SNORA58 / Fold change vs veh, SNORA58 / RFU, C1orf63 / Fold change vs veh, C1orf63 / RFU, LRRFIP1 / Fold change vs veh, LRRFIP1 / RFU, NDUFAF7 / Fold change vs veh, NDUFAF7 / RFU, SLC12A2 / Fold change vs veh, SLC12A2 / RFU, IBTK / Fold change vs veh, IBTK / RFU, ESF1 / Fold change vs veh, ESF1 / Fold change vs veh, TMEM50B / RFU, TAOK1 / Fold change vs veh, TAOK1 / RFU, ACBD3 / Fold change vs veh, ACBD3 / RFU, TMA16 / Fold change vs veh, TMA16 / RFU, RWDD3 / Fold change vs veh, RWDD3 / RFU, BCAT1 / Fold change vs veh, BCAT1 / RFU, EDEM3 / Fold change vs veh, EDEM3 / RFU, TMEM33 / Fold change vs veh, TMEM33 / RFU, WDR75 / Fold change vs veh, WDR75 / RFU, AHCTF1 / Fold change vs veh, AHCTF1 / RFU, TFRC / Fold change vs veh, TFRC / RFU, ZDHHC17 / Fold change vs veh, ZDHHC17 / RFU, NOM1 / Fold change vs veh, NOM1 / RFU, ARL8B / Fold change vs veh, ARL8B / RFU, ZBTB11 / Fold change vs veh, ZBTB11 / RFU, TAMM41 / Fold change vs veh, TAMM41 / RFU, KIAA1704 /// LOC100996395 / Fold change vs veh, KIAA1704 /// LOC100996395 / RFU, ING1 / Fold change vs veh, ING1 / RFU, TRMT61B / Fold change vs veh, TRMT61B / RFU, FUBP3 / Fold change vs veh, FUBP3 / RFU, TP53 / Fold change vs veh, TP53 / RFU, TNKS2 / Fold change vs veh, TNKS2 / RFU, ZFP14 / Fold change vs veh, ZFP14 / RFU, ACTR2 / Fold change vs veh, ACTR2 / RFU, PPP3R1 / Fold change vs veh, PPP3R1 / RFU, PIK3R1 / Fold change vs veh, PIK3R1 / RFU, HNRNPA1 / Fold change vs veh, HNRNPA1 / RFU, RNF170 / Fold change vs veh, RNF170 / RFU, ZNF28 / Fold change vs veh, ZNF28 / RFU, RNGTT / Fold change vs veh, RNGTT / RFU, OGT / Fold change vs veh, OGT / RFU, BRD1 / Fold change vs veh, BRD1 / RFU, MARS / Fold change vs veh, MARS / RFU, ZNF655 / Fold change vs veh, ZNF655 / RFU, FAHD1 / Fold change vs veh, FAHD1 / RFU, BDP1 / Fold change vs veh, BDP1 / RFU, LRRCC1 / Fold change vs veh, LRRCC1 / RFU, ARID1A / Fold change vs veh, ARID1A / RFU, ZNF146 / Fold change vs veh, ZNF146 / RFU, ZNF330 / Fold change vs veh, ZNF330 / RFU, GPN3 / Fold change vs veh, GPN3 / RFU, C9orf123 / Fold change vs veh, C9orf123 / RFU, N4BP2L2 / Fold change vs veh, N4BP2L2 / RFU, ARFIP1 / Fold change vs veh, ARFIP1 / RFU, FAM179B / Fold change vs veh, FAM179B / RFU, BCL10 / Fold change vs veh, BCL10 / RFU, UHRF1BP1L / Fold change vs veh, UHRF1BP1L / RFU, BET1 / Fold change vs veh, BET1 / RFU, CNOT2 / Fold change vs veh, CNOT2 / RFU, ZNF268 / Fold change vs veh, ZNF268 / Fold change vs veh, ZNF507 / RFU, DGCR2 / Fold change vs veh, DGCR2 / RFU, WDSUB1 / Fold change vs veh, WDSUB1 / Fold change vs veh, HSP90B1 /// MIR3652 / RFU, ADSS / Fold change vs veh, ADSS / RFU, GK / Fold change vs veh, GK / RFU, ZNF148 / Fold change vs veh, ZNF148 / RFU, TAF9 / Fold change vs veh, TAF9 / RFU, SLC1A5 / Fold change vs veh, SLC1A5 / RFU, SLMO2 / Fold change vs veh, SLMO2 / RFU, ABCC4 / Fold change vs veh, ABCC4 / RFU, LOC101060439 /// RAP1B / Fold change vs veh, LOC101060439 /// RAP1B / RFU, RFX7 / Fold change vs veh, RFX7 / RFU, GTPBP10 / Fold change vs veh, GTPBP10 / RFU, CNEP1R1 / Fold change vs veh, CNEP1R1 / RFU, BIVM-ERCC5 /// ERCC5 / Fold change vs veh, BIVM-ERCC5 /// ERCC5 / RFU, ILF3 / Fold change vs veh, ILF3 / RFU 11762660_at / Fold change /veh 11762660_at / RFU VCAN (11757783_s_at) / Fold change /veh VCAN (11757783_s_at) / RFU DDX43 (11728927_at) / Fold change /veh DDX43 (11728927_at) / RFU KRT8 (11758188_x_at) / Fold change /veh KRT8 (11758188_x_at) / RFU NKD1 (11759106_at) / Fold change /veh NKD1 (11759106_at) / RFU SRD5A1 (11742802_a_at) / Fold change /veh SRD5A1 (11742802_a_at) / RFU TPSAB1 /// TPSB2 (11721975_s_at) / Fold change /veh TPSAB1 /// TPSB2 (11721975_s_at) / RFU GSTM3 (11746129_a_at) / Fold change /veh GSTM3 (11746129_a_at) / RFU IL23R (11737362_x_at) / Fold change /veh IL23R (11737362_x_at) / RFU TMEM51 (11727254_a_at) / Fold change /veh TMEM51 (11727254_a_at) / RFU PIWIL2 (11732686_x_at) / Fold change /veh PIWIL2 (11732686_x_at) / RFU ORM1 (11744905_x_at) / Fold change /veh ORM1 (11744905_x_at) / RFU CCDC152 (11743942_at) / Fold change /veh CCDC152 (11743942_at) / RFU ECM1 (11717891_a_at) / Fold change /veh ECM1 (11717891_a_at) / RFU IL23R (11748794_a_at) / Fold change /veh IL23R (11748794_a_at) / RFU TNFAIP8L3 (11732012_x_at) / Fold change /veh TNFAIP8L3 (11732012_x_at) / RFU MBOAT4 (11741988_at) / Fold change /veh MBOAT4 (11741988_at) / RFU 11764193_at / Fold change /veh 11764193_at / RFU TMEM53 (11763286_at) / Fold change /veh TMEM53 (11763286_at) / RFU MAGEB2 (11727129_at) / Fold change /veh MAGEB2 (11727129_at) / RFU TMEM200A (11744735_a_at) / Fold change /veh TMEM200A (11744735_a_at) / RFU CCDC152 (11751479_a_at) / Fold change /veh CCDC152 (11751479_a_at) / RFU FAM211A (11726209_a_at) / Fold change /veh FAM211A (11726209_a_at) / RFU RGS16 (11746705_a_at) / Fold change /veh RGS16 (11746705_a_at) / RFU VCAN (11755009_s_at) / Fold change /veh VCAN (11755009_s_at) / RFU RHOB (11743442_s_at) / Fold change /veh RHOB (11743442_s_at) / RFU RGS16 (11720943_a_at) / Fold change /veh RGS16 (11720943_a_at) / RFU RGS16 (11720944_at) / Fold change /veh RGS16 (11720944_at) / RFU, VPS4B / Fold change vs veh, VPS4B / RFU, CREB1 / Fold change vs veh, CREB1 / RFU, DNAJC13 / Fold change vs veh, DNAJC13 / RFU, GNAQ / Fold change vs veh, GNAQ / RFU, CDK5R1 / Fold change vs veh, CDK5R1 / RFU, ZRANB3 / Fold change vs veh, ZRANB3 / RFU, CUL4A / Fold change vs veh, CUL4A / RFU, CCNY / Fold change vs veh, CCNY / RFU, UFL1 / Fold change vs veh, UFL1 / RFU, COG3 / Fold change vs veh, COG3 / RFU, DIAPH2 / Fold change vs veh, DIAPH2 / RFU, SKA2 / Fold change vs veh, SKA2 / RFU, AFF3 / Fold change vs veh, AFF3 / RFU, LMF1 / Fold change vs veh, LMF1 / RFU, IPO11 / Fold change vs veh, IPO11 / RFU, DFFB / Fold change vs veh, DFFB / RFU, FOXP1 / Fold change vs veh, FOXP1 / RFU, CARD8 / Fold change vs veh, CARD8 / RFU, STRN3 / Fold change vs veh, STRN3 / RFU, ADK / Fold change vs veh, ADK / RFU, RASSF2 / Fold change vs veh, RASSF2 / RFU, WIPF1 / Fold change vs veh, WIPF1 / RFU, LARP1B / Fold change vs veh, LARP1B / RFU, RASA1 / Fold change vs veh, RASA1 / RFU, RB1 / Fold change vs veh, RB1 / RFU, PPFIA1 / Fold change vs veh, PPFIA1 / RFU, MAT2A / Fold change vs veh, MAT2A / RFU, CCT5 / Fold change vs veh, CCT5 / RFU, WDR92 / Fold change vs veh, WDR92 / RFU, CUX1 / Fold change vs veh, CUX1 / RFU, TTC7A / Fold change vs veh, TTC7A / RFU, TMEM135 / Fold change vs veh, TMEM135 / RFU, DEPTOR / Fold change vs veh, DEPTOR / RFU, CPM / Fold change vs veh, CPM / RFU, DNAJB6 / Fold change vs veh, DNAJB6 / RFU, CACNA2D3 / Fold change vs veh, CACNA2D3 / RFU, DTX4 / Fold change vs veh, DTX4 / RFU, TFCP2 / Fold change vs veh, TFCP2 / RFU, GMCL1 /// GMCL1P1 / Fold change vs veh, GMCL1 /// GMCL1P1 / RFU, AEBP2 / Fold change vs veh, AEBP2 / RFU, SNHG1 /// SNORD22 /// SNORD25 /// SNORD26 /// SNORD27 /// SNORD28 /// SNORD29 /// SNORD31 / Fold change vs veh, SNHG1 /// SNORD22 /// SNORD25 /// SNORD26 /// SNORD27 /// SNORD28 /// SNORD29 /// SNORD31 / Fold change (Aza/veh), C12orf56 (ProbeSet 11735607_a_at) / Fold change (ACY-1035/veh), C12orf56 (ProbeSet 11735607_a_at) / Fold change (Aza/veh), FGFR1OP (ProbeSet 11751329_s_at) / Fold change (ACY-1035/veh), FGFR1OP (ProbeSet 11751329_s_at) / Fold change (Aza/veh), VPS36 (ProbeSet 11739960_a_at) / Fold change (ACY-1035/veh), VPS36 (ProbeSet 11739960_a_at) / RFU SYPL1 (11715823_x_at) / Fold change /veh SYPL1 (11715823_x_at) / RFU IGFBP7 (11715501_s_at) / Fold change /veh IGFBP7 (11715501_s_at) / RFU REEP3 (11722064_at) / Fold change /veh REEP3 (11722064_at) / RFU IGLL1 (11728026_x_at) / Fold change /veh IGLL1 (11728026_x_at): dose or concentration left out as unconfirmed
Details: MV-4-11 cells, 48 hours

Nc1ncn([C@@H]2O[C@H](CO)[C@@H](O)[C@H]2O)c(=O)n1 [azacitidine]
RFU OR2T12 /// OR2T33 /// OR2T8 (11738714_s_at): 6.40 RFU
